According to ChEMBL document CHEMBL5050849 (2020):

Target: Ubiquitin carboxyl-terminal hydrolase 9X (Homo sapiens, UniProt Q93008)
Assay: Inhibition of USP9X (unknown origin) using Ubiquitin-Rhoadmine 110 as substrate preincubated for 30 mins followed by substrate addition and measured after 11 mins by fluorescence assay
Format: single protein

Sequence of Ubiquitin carboxyl-terminal hydrolase 9X (Q93008 whole entry): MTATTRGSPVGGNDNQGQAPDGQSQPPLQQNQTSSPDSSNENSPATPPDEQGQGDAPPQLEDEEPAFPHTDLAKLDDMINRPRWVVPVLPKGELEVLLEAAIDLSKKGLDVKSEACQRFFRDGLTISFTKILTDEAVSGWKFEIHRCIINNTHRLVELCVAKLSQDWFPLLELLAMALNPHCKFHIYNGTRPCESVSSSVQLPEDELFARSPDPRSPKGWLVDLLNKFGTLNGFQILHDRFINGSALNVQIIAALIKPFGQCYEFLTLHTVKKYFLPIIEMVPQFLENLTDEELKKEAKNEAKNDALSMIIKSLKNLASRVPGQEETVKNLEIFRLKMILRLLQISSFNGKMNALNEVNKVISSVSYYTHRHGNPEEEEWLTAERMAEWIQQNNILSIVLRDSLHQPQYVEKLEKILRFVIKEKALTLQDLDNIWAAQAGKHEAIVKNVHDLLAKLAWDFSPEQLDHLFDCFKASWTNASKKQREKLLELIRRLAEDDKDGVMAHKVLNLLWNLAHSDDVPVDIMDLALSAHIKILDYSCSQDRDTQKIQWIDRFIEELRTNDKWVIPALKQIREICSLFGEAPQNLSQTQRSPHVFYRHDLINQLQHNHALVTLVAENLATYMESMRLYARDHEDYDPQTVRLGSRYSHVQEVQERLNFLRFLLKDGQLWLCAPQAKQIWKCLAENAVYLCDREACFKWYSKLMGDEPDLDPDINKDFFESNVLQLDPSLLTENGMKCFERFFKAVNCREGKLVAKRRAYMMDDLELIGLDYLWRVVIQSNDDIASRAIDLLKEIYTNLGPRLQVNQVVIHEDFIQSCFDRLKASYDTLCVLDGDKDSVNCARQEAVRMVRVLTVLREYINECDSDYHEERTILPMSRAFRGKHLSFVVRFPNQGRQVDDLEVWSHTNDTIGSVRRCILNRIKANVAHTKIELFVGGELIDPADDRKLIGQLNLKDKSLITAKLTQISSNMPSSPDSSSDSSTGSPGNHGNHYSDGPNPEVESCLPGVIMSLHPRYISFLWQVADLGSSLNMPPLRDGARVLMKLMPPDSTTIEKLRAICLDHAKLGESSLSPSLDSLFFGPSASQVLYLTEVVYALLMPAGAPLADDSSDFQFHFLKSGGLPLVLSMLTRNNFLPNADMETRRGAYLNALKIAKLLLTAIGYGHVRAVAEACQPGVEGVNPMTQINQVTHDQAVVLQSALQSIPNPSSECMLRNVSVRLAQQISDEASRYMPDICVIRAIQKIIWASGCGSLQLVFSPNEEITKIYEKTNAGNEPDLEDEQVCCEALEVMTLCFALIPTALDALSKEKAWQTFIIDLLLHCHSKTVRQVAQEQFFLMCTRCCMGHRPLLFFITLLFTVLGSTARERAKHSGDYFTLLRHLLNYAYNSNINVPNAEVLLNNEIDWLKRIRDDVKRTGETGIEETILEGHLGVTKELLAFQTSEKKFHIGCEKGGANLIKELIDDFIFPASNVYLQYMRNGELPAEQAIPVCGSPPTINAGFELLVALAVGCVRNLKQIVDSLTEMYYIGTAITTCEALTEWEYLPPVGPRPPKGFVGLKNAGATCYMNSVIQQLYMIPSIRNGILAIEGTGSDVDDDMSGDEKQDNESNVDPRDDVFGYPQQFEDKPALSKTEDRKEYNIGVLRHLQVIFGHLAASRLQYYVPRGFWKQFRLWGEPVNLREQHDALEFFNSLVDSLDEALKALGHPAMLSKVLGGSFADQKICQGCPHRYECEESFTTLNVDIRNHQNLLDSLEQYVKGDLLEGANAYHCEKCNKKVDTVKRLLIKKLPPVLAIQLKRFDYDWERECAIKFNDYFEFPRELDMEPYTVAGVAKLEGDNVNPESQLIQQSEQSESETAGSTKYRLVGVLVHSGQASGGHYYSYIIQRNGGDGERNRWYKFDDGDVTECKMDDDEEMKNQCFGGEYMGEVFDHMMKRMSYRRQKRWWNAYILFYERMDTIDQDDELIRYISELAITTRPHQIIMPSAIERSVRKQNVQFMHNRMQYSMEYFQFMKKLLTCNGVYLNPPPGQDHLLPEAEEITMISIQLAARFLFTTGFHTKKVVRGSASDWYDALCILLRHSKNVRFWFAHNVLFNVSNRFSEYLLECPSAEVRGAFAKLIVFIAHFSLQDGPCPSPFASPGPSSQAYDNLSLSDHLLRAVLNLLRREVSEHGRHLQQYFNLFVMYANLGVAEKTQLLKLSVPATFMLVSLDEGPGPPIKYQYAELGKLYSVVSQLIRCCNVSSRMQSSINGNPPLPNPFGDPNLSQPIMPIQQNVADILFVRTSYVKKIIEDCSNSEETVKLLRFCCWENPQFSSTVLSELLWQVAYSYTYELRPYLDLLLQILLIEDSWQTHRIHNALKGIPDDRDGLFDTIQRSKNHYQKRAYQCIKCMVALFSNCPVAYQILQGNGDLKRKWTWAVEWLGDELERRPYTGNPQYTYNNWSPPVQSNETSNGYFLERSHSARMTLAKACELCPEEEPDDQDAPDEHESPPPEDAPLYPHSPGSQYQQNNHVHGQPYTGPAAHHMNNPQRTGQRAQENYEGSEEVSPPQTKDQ

Structure (SMILES)	IC50 [µM]
C[C@@H](c1ccccc1)N1Cc2cc(S(=O)(=O)c3ccc4c(c3)OCCO4)ccc2C1=O	> 25
O=S(=O)(c1ccccc1)c1cc2c(cn1)CN(S(=O)(=O)c1ccc(-c3ncco3)cc1)C2	> 25
COc1ccc(S(=O)(=O)N2CCc3nn(C(=O)[C@@H](O)c4ccccc4)cc3C2)cc1O	> 25
O=C(c1cccc(Cl)c1)c1cc2c(cn1)CN(S(=O)(=O)c1ccc3c(c1)OCCO3)C2	> 25
O=C([C@@H](O)c1ccccc1)N1CCc2c(cnn2S(=O)(=O)c2ccc3c(c2)OCCO3)C1	> 25

Now from value to compound:

IC50 [µM]	Structure (SMILES)
> 25	O=S(=O)(C1CCN(c2nccs2)CC1)N1Cc2cnc(C(O)c3ccccc3)cc2C1 (centres undefined)
> 25	O=S(=O)(c1ccc(-n2ccnc2)cc1)N1Cc2cnc(C(O)c3ccccc3)cc2C1 (centres undefined)
> 25	O=S(=O)(C1CCN(c2ncco2)CC1)N1Cc2cnc(C(O)c3ccccc3)cc2C1 (centres undefined)
> 25	OC(c1ccccc1)c1cc2c(cn1)CN(Cc1ccc3c(c1)OCCO3)C2 (centres undefined)
